Here are results for one molecule from article PMC6801739, “Antitumor Activity of a Novel Tyrosine Kinase Inhibitor AIU2001 Due to Abrogation of the DNA Damage Repair in Non-Small Cell Lung Cancer Cells” (International Journal of Molecular Sciences, 2019).

One experiment concerns the target T1, TrkA (Homo sapiens, UniProt P04629).
T1 construct: purchased Eurofins Pharma Discovery (KinaseProfiler); IC50 values by Reaction Biology Corp
The experiment in a line: Kinase profiling at 10 μM (Eurofins). To be noted: read-out: Inhibitory activity. Format: biochemical.

In a further experiment the target is T2, TAK1 (Homo sapiens, UniProt O43318).
T2 construct: purchased Eurofins Pharma Discovery (KinaseProfiler); IC50 values by Reaction Biology Corp
T2 sequence (O43318 1-303 limits assumed): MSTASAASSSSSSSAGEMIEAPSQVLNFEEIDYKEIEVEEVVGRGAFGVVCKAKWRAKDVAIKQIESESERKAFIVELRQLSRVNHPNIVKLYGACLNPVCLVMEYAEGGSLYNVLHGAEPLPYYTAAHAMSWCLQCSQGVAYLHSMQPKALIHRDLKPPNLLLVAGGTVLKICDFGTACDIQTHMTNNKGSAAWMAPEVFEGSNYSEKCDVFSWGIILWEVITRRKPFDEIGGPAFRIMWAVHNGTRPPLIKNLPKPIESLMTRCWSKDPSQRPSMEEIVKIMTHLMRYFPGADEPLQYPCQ
The experiment in a line: Kinase profiling at 10 μM (Eurofins). Format: biochemical. To be noted: read-out: Inhibitory activity.

Another experiment deals with MV4-11 cells. The experiment in a line: CCK-8 cell viability assay. It counts as cell-based, human. The following applies: CCK-8, 5 days. Here is the method:
(§1) Supplementary Figure 1. AIU2001 inhibited the proliferation of various cancer cells. (A and B) Human AML cells (Molm-13 and MV4-11; A) and human colorectal cancer (CRC) cells (HCT116/p53+/+ and HCT116/p53-/-; B) were treated with AIU2001 at the indicated concentrations for 5 days and viable cells were evaluated using the CCK-8 assay for AML cells and the MTT assay for CRC cells. *p < 0.05, **p < 0.01, ***p < 0.001 versus respective vehicle controls.
(§2) (also on this page, place not known: ca ncer fo r 02468 Cell viability (%) 0 1 Cell viability (%) *** *** ***) […]
(§3) Cell viability. Cytotoxicity assay of AML cells was performed using cell counting kit-8 (CCD-8; Dojindo, Japan) according to the manufacturer’s procedure. Briefly, MV4-11 or Molm-13 cells were plated in 96-well plates at a density of […] or 1 × 10^3 cells/well in triplicate, treated with AIU2001 or DMSO, and then incubated for 5 days. After adding the CCK-8 solution (10 μl) to each well and incubating the plates for 3 h, absorbance at 450 nm was measured using a microplate reader
(In general: Formazan colour is commonly taken as a measure of viable cells.)

A further experiment relates to Molm-13 cells. Briefly: CCK-8 cell viability assay. It counts as cell-based, human. To be noted: CCK-8, 5 days. Here is the method:
as §1, §2, §3

The target in another experiment is T3, FLT1 (Homo sapiens, UniProt P17948).
T3 construct: purchased Eurofins Pharma Discovery (KinaseProfiler); IC50 values by Reaction Biology Corp
T3 sequence (P17948 27-1338): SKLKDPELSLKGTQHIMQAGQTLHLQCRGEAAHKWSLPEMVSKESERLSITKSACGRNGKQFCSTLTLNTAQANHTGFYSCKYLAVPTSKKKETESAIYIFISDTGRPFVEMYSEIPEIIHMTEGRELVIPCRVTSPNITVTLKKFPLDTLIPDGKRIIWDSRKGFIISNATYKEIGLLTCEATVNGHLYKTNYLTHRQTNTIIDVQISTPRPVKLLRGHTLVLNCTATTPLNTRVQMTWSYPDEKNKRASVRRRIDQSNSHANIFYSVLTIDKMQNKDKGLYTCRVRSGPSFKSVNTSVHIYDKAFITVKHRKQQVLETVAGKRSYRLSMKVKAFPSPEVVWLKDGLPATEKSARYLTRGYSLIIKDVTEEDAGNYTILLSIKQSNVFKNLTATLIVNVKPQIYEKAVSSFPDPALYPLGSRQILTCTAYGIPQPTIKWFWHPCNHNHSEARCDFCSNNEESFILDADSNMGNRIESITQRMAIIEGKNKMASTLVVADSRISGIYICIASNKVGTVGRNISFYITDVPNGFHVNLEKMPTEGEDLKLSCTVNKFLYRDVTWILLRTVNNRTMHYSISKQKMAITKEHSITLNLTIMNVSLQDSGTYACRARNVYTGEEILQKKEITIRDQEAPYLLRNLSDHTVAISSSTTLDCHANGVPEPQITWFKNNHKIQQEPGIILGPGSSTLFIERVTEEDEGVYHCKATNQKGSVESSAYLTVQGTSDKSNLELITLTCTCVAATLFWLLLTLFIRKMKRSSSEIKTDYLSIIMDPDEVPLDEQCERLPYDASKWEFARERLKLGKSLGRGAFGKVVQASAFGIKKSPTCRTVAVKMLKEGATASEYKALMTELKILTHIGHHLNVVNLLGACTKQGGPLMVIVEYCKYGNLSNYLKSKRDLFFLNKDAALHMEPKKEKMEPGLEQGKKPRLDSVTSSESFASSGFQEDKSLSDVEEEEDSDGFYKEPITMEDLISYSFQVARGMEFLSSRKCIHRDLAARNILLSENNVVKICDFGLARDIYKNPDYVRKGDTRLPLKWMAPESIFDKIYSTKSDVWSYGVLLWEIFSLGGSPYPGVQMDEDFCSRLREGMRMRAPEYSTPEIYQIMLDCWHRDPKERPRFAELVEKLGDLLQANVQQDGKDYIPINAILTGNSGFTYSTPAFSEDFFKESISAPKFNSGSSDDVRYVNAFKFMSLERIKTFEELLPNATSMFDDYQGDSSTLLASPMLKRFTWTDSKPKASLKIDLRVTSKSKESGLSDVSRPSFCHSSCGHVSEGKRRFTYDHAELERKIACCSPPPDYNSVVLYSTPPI
The experiment in a line: Kinase profiling at 10 μM (Eurofins). It counts as biochemical. To be noted: read-out: Inhibitory activity.

The target of the next experiment is T4, CHK2 (Homo sapiens, UniProt O96017).
T4 construct: purchased Eurofins Pharma Discovery (KinaseProfiler); IC50 values by Reaction Biology Corp
T4 sequence (O96017 whole entry): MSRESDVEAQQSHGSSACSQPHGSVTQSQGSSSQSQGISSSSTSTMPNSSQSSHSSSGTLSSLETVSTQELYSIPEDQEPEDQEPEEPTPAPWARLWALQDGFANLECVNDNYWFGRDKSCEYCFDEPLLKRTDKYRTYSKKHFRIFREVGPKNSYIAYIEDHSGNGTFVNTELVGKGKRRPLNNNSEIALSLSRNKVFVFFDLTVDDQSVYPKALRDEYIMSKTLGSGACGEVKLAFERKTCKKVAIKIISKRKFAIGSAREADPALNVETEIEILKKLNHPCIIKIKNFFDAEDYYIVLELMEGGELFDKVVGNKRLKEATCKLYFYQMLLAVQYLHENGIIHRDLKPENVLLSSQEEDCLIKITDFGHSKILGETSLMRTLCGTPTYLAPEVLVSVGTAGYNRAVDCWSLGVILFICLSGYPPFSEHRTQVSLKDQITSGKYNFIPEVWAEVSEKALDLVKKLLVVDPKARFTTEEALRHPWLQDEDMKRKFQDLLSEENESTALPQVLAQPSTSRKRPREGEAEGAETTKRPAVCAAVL
The experiment in a line: Kinase profiling at 10 μM (Eurofins). It counts as biochemical. The following applies: read-out: Inhibitory activity.

The next experiment deals with T5, FLT3 (Homo sapiens, UniProt P36888).
T5 construct: purchased Eurofins Pharma Discovery (KinaseProfiler); IC50 values by Reaction Biology Corp
The experiment in a line: In vitro kinase assay, IC50 (Reaction Biology Corp.). Format: biochemical.

The next experiment has as its target T6, DDR2 (Homo sapiens, UniProt Q16832).
T6 construct: purchased Eurofins Pharma Discovery (KinaseProfiler); IC50 values by Reaction Biology Corp
The experiment in a line: Kinase profiling at 10 μM (Eurofins). It counts as biochemical. The following applies: read-out: Inhibitory activity.

For the next experiment, the target named is T7, ARK5 (Homo sapiens, UniProt O60285).
T7 construct: purchased Eurofins Pharma Discovery (KinaseProfiler); IC50 values by Reaction Biology Corp
T7 sequence (O60285 whole entry): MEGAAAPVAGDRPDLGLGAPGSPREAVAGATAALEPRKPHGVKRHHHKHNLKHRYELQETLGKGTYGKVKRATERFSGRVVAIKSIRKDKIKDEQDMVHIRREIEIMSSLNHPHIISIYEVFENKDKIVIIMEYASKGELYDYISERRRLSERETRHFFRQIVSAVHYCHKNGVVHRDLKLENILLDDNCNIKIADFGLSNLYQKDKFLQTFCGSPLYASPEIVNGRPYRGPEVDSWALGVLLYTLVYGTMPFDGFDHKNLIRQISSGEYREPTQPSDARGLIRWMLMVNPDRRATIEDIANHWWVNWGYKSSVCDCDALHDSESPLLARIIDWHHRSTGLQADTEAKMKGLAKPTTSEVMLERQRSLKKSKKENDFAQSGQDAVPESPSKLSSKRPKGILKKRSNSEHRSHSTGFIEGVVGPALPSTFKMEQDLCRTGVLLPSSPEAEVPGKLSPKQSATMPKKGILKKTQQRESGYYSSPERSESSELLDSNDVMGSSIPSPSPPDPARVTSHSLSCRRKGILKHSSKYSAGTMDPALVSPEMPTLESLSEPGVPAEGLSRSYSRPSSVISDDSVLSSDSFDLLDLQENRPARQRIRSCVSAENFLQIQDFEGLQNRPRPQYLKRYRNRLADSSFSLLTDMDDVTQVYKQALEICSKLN
Briefly: Kinase profiling at 10 μM (Eurofins). Format: biochemical. The following applies: read-out: Inhibitory activity.

For another experiment, the target named is T8, PDK1 (Homo sapiens, UniProt O15530).
T8 construct: purchased Eurofins Pharma Discovery (KinaseProfiler); IC50 values by Reaction Biology Corp
Briefly: Kinase profiling at 10 μM (Eurofins). Format: biochemical. The following applies: read-out: Inhibitory activity.

The subject of the next experiment is H1299 cells. The experiment in a line: Cell cycle analysis (PI, flow cytometry). Format: cell-based, human. To be noted: 5 μM. The procedure:
(§4) Samples were collected at the indicated time points and fixed in 70% cold ethanol overnight. For cell cycle analysis, the fixed cells were treated with RNase for 20 min before addition of 50 μg/mL PI and analyzed using FACS Calibur™ (BD Biosciences, San Jose, CA, USA).

The next experiment deals with A549 cells. The experiment in a line: Cell cycle analysis (PI, flow cytometry). The following applies: 5 μM. Format: cell-based, human. Here is the method: as §4
In the next experiment the target is T9, WEE1 (Homo sapiens, UniProt P30291).
T9 construct: purchased Eurofins Pharma Discovery (KinaseProfiler); IC50 values by Reaction Biology Corp
T9 sequence (P30291 whole entry): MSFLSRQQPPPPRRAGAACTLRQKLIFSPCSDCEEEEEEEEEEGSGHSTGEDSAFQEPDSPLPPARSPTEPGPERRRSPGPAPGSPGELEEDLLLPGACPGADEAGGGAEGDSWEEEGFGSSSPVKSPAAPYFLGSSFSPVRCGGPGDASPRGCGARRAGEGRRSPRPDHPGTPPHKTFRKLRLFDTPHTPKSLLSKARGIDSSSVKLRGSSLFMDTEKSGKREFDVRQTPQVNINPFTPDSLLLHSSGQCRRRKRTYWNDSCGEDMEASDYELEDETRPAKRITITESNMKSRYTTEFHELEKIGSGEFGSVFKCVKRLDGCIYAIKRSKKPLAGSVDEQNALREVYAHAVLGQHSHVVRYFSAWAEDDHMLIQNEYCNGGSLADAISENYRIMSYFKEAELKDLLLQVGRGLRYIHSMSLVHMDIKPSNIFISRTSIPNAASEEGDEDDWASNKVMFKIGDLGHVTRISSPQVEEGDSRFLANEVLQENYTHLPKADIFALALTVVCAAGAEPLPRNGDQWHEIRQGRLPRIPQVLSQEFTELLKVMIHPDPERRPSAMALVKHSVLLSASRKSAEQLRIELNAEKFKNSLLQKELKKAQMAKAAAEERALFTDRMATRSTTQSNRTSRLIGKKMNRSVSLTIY
Briefly: Kinase profiling at 10 μM (Eurofins). It counts as biochemical. To be noted: read-out: Inhibitory activity.

T1 sequence (P04629 33-796): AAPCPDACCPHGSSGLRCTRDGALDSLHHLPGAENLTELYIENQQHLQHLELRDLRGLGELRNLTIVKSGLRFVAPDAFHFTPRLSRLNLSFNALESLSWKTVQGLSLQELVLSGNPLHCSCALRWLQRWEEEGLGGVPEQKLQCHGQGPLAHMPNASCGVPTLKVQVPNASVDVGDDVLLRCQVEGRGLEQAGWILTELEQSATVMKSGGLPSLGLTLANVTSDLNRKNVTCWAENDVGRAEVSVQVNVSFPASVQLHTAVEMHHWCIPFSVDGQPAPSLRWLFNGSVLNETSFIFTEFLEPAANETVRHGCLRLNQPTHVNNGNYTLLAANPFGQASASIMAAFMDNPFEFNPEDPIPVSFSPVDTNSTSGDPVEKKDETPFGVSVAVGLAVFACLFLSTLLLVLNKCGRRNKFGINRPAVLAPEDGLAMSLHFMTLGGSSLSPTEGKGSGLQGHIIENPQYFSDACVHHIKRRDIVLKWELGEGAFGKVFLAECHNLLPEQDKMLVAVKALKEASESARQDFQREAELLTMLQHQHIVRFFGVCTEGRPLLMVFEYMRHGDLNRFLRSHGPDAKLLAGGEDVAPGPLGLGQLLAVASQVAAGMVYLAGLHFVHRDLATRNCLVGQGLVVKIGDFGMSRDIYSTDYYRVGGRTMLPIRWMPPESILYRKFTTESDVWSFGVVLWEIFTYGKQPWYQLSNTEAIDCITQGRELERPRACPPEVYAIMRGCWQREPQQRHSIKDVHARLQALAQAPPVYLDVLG
T6 sequence (Q16832 22-855): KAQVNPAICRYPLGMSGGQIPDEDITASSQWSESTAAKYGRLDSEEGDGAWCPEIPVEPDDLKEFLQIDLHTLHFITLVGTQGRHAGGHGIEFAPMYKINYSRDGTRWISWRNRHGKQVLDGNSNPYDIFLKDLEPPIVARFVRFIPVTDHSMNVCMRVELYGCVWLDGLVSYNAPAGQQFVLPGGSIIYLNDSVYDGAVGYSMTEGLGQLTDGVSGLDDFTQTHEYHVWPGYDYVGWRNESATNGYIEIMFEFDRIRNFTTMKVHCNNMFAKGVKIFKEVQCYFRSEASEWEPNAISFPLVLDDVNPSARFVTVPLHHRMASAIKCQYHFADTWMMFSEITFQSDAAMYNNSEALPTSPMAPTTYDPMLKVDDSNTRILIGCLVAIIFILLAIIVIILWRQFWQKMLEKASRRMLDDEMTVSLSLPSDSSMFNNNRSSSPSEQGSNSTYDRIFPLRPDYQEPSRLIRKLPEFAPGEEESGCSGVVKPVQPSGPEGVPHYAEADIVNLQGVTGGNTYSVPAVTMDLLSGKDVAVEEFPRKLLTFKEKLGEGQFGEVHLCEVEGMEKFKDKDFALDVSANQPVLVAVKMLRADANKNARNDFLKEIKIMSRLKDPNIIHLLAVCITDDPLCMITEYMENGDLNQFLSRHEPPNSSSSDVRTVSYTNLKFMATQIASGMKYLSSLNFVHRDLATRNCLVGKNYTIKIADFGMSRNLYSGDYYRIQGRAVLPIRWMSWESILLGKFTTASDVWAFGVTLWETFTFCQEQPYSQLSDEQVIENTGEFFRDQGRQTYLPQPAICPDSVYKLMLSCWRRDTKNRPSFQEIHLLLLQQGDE

By IC50 is commonly meant the point on the concentration scale where inhibition reaches its midpoint. Low readings indicate higher potency, high ones lower potency. Take `Brc1ccc(-c2cnc(Nc3cccc4ccccc34)o2)cc1` [AIU2001, 5-(4-bromophenyl)-N-(naphthalen-1-yl) oxazol-2-amine]: the inhibition at 10 µM at TrkA is 40%; on TAK1, 15%; on FLT1, 44%; on CHK2 it was 14%; on DDR2, 55%; on ARK5, 75%. Moreover, the inhibition at 10 µM was determined as 19% on PDK1 and 8% on WEE1. In addition, the “Growth inhibition” value in the experiment on MV4-11 cells and with Molm-13 cells was “inhibited the growth” throughout. Moreover, the midpoint of inhibition on FLT3, the IC50, lay at 206 nM. The Cell cycle effect entry with H1299 cells (3 h, 6 h or 24 h) is given as “G2/M phase arrest”; with A549 cells (3 h, 6 h or 24 h) it was “G2/M phase arrest”. Moreover, the figures for the “Cells in the sub-G1 phase” value in the experiment on H1299 cells (24 h) and in the experiment on A549 cells (24 h) were 23.1% and 3.3%, respectively.
